Experiments:
[1] = system: normal NK cells expanded with K562-aAPC; experiment: percent inhibition of viability; higher = more inhibition; settings: 72 h, IL-2 2.5 ng/mL
Description: (§1)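 Drug sensitivity and resistance testing on K562-aAPC-expanded normal NK cells: 5 concentrations (10-fold steps over a 10,000-fold range), 72 h at 37 °C, viability by CellTiter-Glo normalised to DMSO and benzethonium chloride controls; DSS from the fitted curve.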

[2] = system: DERL-7 (IL-2 2.5 ng/mL); experiment: as above; settings: 72 h
[3] = system: IMC-1 (IL-2 20 ng/mL); experiment: as above; settings: 72 h
[4] = system: KAI3 (IL-2 2.5 ng/mL); experiment: as above; settings: 72 h
[5] = system: KHYG-1 (IL-2 2.5 ng/mL); experiment: as above; settings: 72 h
[6] = system: NK-92 (IL-2 2.5 ng/mL); experiment: as above; settings: 72 h
[7] = system: NK-YS (IL-2 2.5 ng/mL); experiment: as above; settings: 72 h
[8] = system: NKL (IL-2 2.5 ng/mL); experiment: as above; settings: 72 h
[9] = system: SNK-6 (IL-2 2.5 ng/mL); experiment: as above; settings: 72 h
[10] = system: YT (IL-2 2.5 ng/mL); experiment: as above; settings: 72 h
[11] = system: normal primary NK cells, pool 1 (3 donors) (IL-2 2.5 ng/mL); experiment: as above; settings: 72 h
[12] = system: normal primary NK cells, pool 1 (3 donors), resting (IL-2 0 ng/mL); experiment: as above; settings: 72 h
[13] = system: normal primary NK cells, pool 2 (3 donors) (IL-2 2.5 ng/mL); experiment: as above; settings: 72 h
[14] = system: normal primary NK cells, pool 3 (3 donors) (IL-2 2.5 ng/mL); experiment: as above; settings: 72 h
[15] = system: normal NK cells expanded with K562-aAPC; experiment: drug sensitivity score (DSS) (DSS units); higher = more sensitive; extreme values may be limits of the assay; settings: 72 h; IL-2 2.5 ng/mL
Description: as §1

[16] = system: DERL-7 (IL-2 2.5 ng/mL); experiment: as above; settings: 72 h
[17] = system: IMC-1 (IL-2 20 ng/mL); experiment: as above; settings: 72 h
[18] = system: KAI3 (IL-2 2.5 ng/mL); experiment: as above; settings: 72 h
[19] = system: KHYG-1 (IL-2 2.5 ng/mL); experiment: as above; settings: 72 h
[20] = system: NK-92 (IL-2 2.5 ng/mL); experiment: as above; settings: 72 h
[21] = system: NK-YS (IL-2 2.5 ng/mL); experiment: as above; settings: 72 h
[22] = system: NKL (IL-2 2.5 ng/mL); experiment: as above; settings: 72 h
[23] = system: SNK-6 (IL-2 2.5 ng/mL); experiment: as above; settings: 72 h
[24] = system: YT (IL-2 2.5 ng/mL); experiment: as above; settings: 72 h
[25] = system: normal primary NK cells, pool 1 (3 donors) (IL-2 2.5 ng/mL); experiment: as above; settings: 72 h
[26] = system: normal primary NK cells, pool 1 (3 donors), resting (IL-2 0 ng/mL); experiment: as above; settings: 72 h
[27] = system: normal primary NK cells, pool 2 (3 donors) (IL-2 2.5 ng/mL); experiment: as above; settings: 72 h
[28] = system: normal primary NK cells, pool 3 (3 donors) (IL-2 2.5 ng/mL); experiment: as above; settings: 72 h

O=[N+]([O-])c1ccc2c(c1)S(=O)(=O)C=C2 [Stattic] (max concentration tested 50000 nM)
percent inhibition of viability [%]
Settings | 5 nM | 50 nM | 500 nM | 5000 nM | 50000 nM
[1] | -4.23 | -7.77 | -7.3 | 100 | 100
[2] | -5.69 | 0.09 | 8.66 | 100 | 100
[3] | -3.55 | -2.13 | -12.2 | -14.1 | 99.9
[4] | -6.42 | 3 | 11.7 | 101 | 100
[5] | -5.88 | -5.42 | -4.14 | 99.4 | 99.5
[6] | -16.4 | -10.7 | -9.15 | 100 | 99.3
[7] | -2.31 | -3.08 | -1.75 | 31.7 | 98.3
[8] | -2.42 | -9.08 | -17.6 | 52.9 | 97.8
[9] | 4.25 | -11.5 | -24.7 | 100 | 100
[10] | -7.41 | -5.02 | -6.62 | 99.5 | 99.9
[11] | -14.2 | -14 | 11.9 | 98.5 | 100
[12] | -24.1 | -39.5 | 15.7 | 93.9 | 100
[13] | -5.68 | 1.61 | 1.47 | 96.5 | 99.9
[14] | -6.16 | -7.86 | -9.75 | 99.1 | 101

Settings | drug sensitivity score
[15] | 17.4
[16] | 19.4
[17] | 4.71
[18] | 19.9
[19] | 17.5
[20] | 17.3
[21] | 9.96
[22] | 11.8
[23] | 16.6
[24] | 17.3
[25] | 19.9
[26] | 19.4
[27] | 17.7
[28] | 17.1

CCc1cc(Nc2nccc(-c3c(-c4ccc(OC)c(C(=O)Nc5c(F)cccc5F)c4)nc4ccccn34)n2)c(OC)cc1N1CCC(N2CCN(S(C)(=O)=O)CC2)CC1 (max concentration tested 10000 nM)
percent inhibition of viability [%]
Settings | 1 nM | 10 nM | 100 nM | 1000 nM | 10000 nM
[1] | -0.94 | -0.53 | -2.18 | 1.87 | 0.97
[2] | -3.29 | 4.96 | -4.2 | 9.43 | 2.99
[3] | -4.74 | -7.3 | -8.28 | -4.78 | -4.76
[4] | 12.8 | 4.45 | 3.16 | -0.26 | -1.06
[5] | -1.04 | -3.94 | -1.22 | -2.02 | -0.15
[6] | -8.65 | -15.5 | 0.66 | 9.19 | 19.7
[7] | -1.69 | -4.53 | 2.55 | 3.02 | 7.23
[8] | -12.8 | -7.57 | -8.59 | -4.55 | -4.74
[9] | -2.73 | -8.81 | -9.86 | -16 | -27.5
[10] | 2.55 | -0.94 | 2.88 | -1.24 | 0.54
[11] | -5.95 | -3.54 | 3.36 | -0.74 | -0.37
[12] | -6.68 | -7.72 | 5.14 | 4.15 | 11.5
[13] | -9.34 | 1.62 | -10.3 | -0.25 | -11.9
[14] | 1.45 | 1.94 | -1.25 | -1.57 | -1.55

Settings | drug sensitivity score
[15] | 0
[16] | 0
[17] | 0
[18] | 0
[19] | 0
[20] | 1.41
[21] | 0
[22] | 0
[23] | 0
[24] | 0
[25] | 0
[26] | 0
[27] | 0
[28] | 0

Reference: the supplement of paper PMC5908809
